Measurements: patent US8394848B2, “Compounds that modulate intracellular calcium” (Calcimedica, Inc., priority 2008, dated 2013)

Test system: JR251 or RBL cells
Assay: Store-operated calcium entry, either JR251 or RBL cells, or both
Assay type: cell-based
In short: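 FLIPR calcium-entry readout in fluo-4-loaded cells held in Ca2+-free HBSS before calcium add-back. For RBL-2H3, store depletion used thapsigargin for 25 min after a 5 min compound pre-incubation, and IC50 was based on the 7 s Upslope. For Orai1/STIM1 stable cells, compound was pre-incubated 30 min and IC50 was based on Peak-Basal.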

IC50, < 10 µM:
O=C(Nc1scc(-c2ccc3occc3c2)c1C(=O)O)c1cc2ccccc2o1 [2-(benzofuran-2-carboxamido)-4-(benzofuran-5-yl)thiophene-3-carboxylic acid]
N#Cc1cc(-c2csc(NC(=O)c3nc4ccccc4o3)c2C(=O)O)ccc1Cl [2-(benzo[d]oxazole-2-carboxamido)-4-(4-chloro-3-cyanophenyl)thiophene-3-carboxylic acid]
Cc1ccc(-c2csc(NC(=O)c3ccc(-c4cccs4)s3)c2C(=O)O)cc1 [2-(2,2′-bithiophene-5-carboxamido)-4-p-tolylthiophene-3-carboxylic acid]
O=C(Nc1scc(-c2ccc(Cl)c(F)c2)c1C(=O)O)c1ccc2snnc2c1 [2-(benzo[d][1,2,3]thiadiazole-5-carboxamido)-4-(4-chloro-3-fluorophenyl)thiophene-3-carboxylic acid]
COc1cccc2cc(-c3csc(NC(=O)c4ccc5snnc5c4)c3C(=O)O)oc12 [2-(benzo[d][1,2,3]thiadiazole-5-carboxamido)-4-(7-methoxybenzofuran-2-yl)thiophene-3-carboxylic acid]
O=C(CCc1cccs1)Nc1scc(-c2ccc(Cl)cc2)c1C(=O)O [4-(4-chlorophenyl)-2-(3-(thiophen-2-yl)propanamido)thiophene-3-carboxylic acid]
Cc1ccc(-c2csc(NC(=O)c3nc4ccccc4s3)c2C(=O)O)cc1F [2-(benzo[d]thiazole-2-carboxamido)-4-(3-fluoro-4-methylphenyl)thiophene-3-carboxylic acid]
COc1cc(-c2csc(NC(=O)c3ccc4snnc4c3)c2C(=O)O)ccc1Cl [2-(benzo[d][1,2,3]thiadiazole-5-carboxamido)-4-(4-chloro-3-methoxyphenyl)thiophene-3-carboxylic acid]
O=C(CCc1cccs1)Nc1scc(-c2ccc(Br)cc2)c1C(=O)O [4-(4-bromophenyl)-2-(3-(thiophen-2-yl)propanamido)thiophene-3-carboxylic acid]
O=C(Nc1scc(-c2ccc(OC(F)(F)F)cc2)c1C(=O)O)c1nc2ccccc2o1 [2-(benzo[d]oxazole-2-carboxamido)-4-(4-(trifluoromethoxy)phenyl)thiophene-3-carboxylic acid]
O=C(Nc1scc(-c2ccc3c(c2)CCO3)c1C(=O)O)c1nc2ccccc2o1 [2-(benzo[d]oxazole-2-carboxamido)-4-(2,3-dihydrobenzofuran-5-yl)thiophene-3-carboxylic acid]
O=C(O)c1c(-c2ccc(Cl)cc2)csc1NC(=O)C1Cc2ccccc21 (stereo not shown) [4-(4-chlorophenyl)-2-(1,2-dihydrocyclobutabenzene-1-carboxamido)thiophene-3-carboxylic acid]
O=Cc1sccc1OCC(=O)Nc1scc(-c2ccc(Cl)cc2)c1C(=O)O [4-(4-chlorophenyl)-2-(2-(2-formylthiophen-3-yloxy)acetamido)thiophene-3-carboxylic acid]
N#Cc1ccc(-c2csc(NC(=O)c3cc4sccc4s3)c2C(=O)O)cc1 [4-(4-cyanophenyl)-2-(thieno[3,2-b]thiophene-2-carboxamido)thiophene-3-carboxylic acid]
O=C(Nc1scc(-c2ccc(Cl)cc2)c1C(=O)O)c1nc2ccc([N+](=O)[O-])cc2s1 [4-(4-chlorophenyl)-2-(6-nitrobenzo[d]thiazole-2-carboxamido)thiophene-3-carboxylic acid]
N#Cc1cc(-c2csc(NC(=O)c3nc4ccccc4o3)c2C(=O)O)ccc1F [2-(benzo[d]oxazole-2-carboxamido)-4-(3-cyano-4-fluorophenyl)thiophene-3-carboxylic acid]
O=C(Nc1scc(-c2ccc(Cl)cc2)c1C(=O)O)c1cscn1 [4-(4-chlorophenyl)-2-(thiazole-4-carboxamido)thiophene-3-carboxylic acid]
Cc1cccc2nc(C(=O)Nc3scc(-c4ccc(Cl)cc4)c3C(=O)O)c(F)n12 [4-(4-chlorophenyl)-2-(3-fluoro-5-methylimidazo[1,2-a]pyridine-2-carboxamido)thiophene-3-carboxylic acid]
O=C(Nc1scc(-c2ccc(Cl)cc2)c1C(=O)O)c1nc2ccccc2[nH]1 [2-(1H-benzo[d]imidazole-2-carboxamido)-4-(4-chlorophenyl)thiophene-3-carboxylic acid]
O=C(O)c1c(-c2ccccc2Br)csc1NC(=O)C1CC1 [4-(2-bromophenyl)-2-(cyclopropanecarboxamido)thiophene-3-carboxylic acid]
O=C(NCC1CCCCC1)Nc1scc(-c2ccc(Cl)cc2)c1C(=O)O [4-(4-chlorophenyl)-2-(3-(cyclohexylmethyl)ureido)thiophene-3-carboxylic acid]
O=C(Nc1scc(-c2ccc(Cl)cc2)c1C(=O)O)c1cc(-c2ccccc2)on1 [4-(4-chlorophenyl)-2-(5-phenylisoxazole-3-carboxamido)thiophene-3-carboxylic acid]
O=C(Nc1scc(-c2ccc(Br)cc2)c1C(=O)O)c1ccc2snnc2c1 [2-(benzo[d][1,2,3]thiadiazole-5-carboxamido)-4-(4-bromophenyl)thiophene-3-carboxylic acid]
Cc1ccc(-c2csc(NC(=O)c3nc4cccc(F)c4o3)c2C(=O)O)c(F)c1F [4-(2,3-difluoro-4-methylphenyl)-2-(7-fluorobenzo[d]oxazole-2-carboxamido)thiophene-3-carboxylic acid]
O=C(Nc1scc(-c2ccc(Cl)cc2)c1C(=O)O)c1cnc(C(F)(F)F)nc1 [4-(4-chlorophenyl)-2-(2-(trifluoromethyl)pyrimidine-5-carboxamido)thiophene-3-carboxylic acid]
CC(C)S(=O)(=O)c1csc(C(=O)Nc2scc(-c3ccc(Cl)cc3)c2C(=O)O)c1Cl [2-(3-chloro-4-(isopropylsulfonyl)thiophene-2-carboxamido)-4-(4-chlorophenyl)thiophene-3-carboxylic acid]
O=C(O)c1c(-c2ccc(Br)cc2)csc1NC(=O)C(F)Cc1c(Cl)cccc1Cl (stereo not shown) [4-(4-bromophenyl)-2-(3-(2,6-dichlorophenyl)-2-fluoropropanamido)thiophene-3-carboxylic acid]
CC(C)(CC(=O)Nc1scc(-c2ccc(Cl)cc2)c1C(=O)O)c1ccccc1 [4-(4-chlorophenyl)-2-(3-methyl-3-phenylbutanamido)thiophene-3-carboxylic acid]
O=C(O)c1c(-c2ccc(Cl)cc2)csc1NC(=O)C(F)Cc1cc(F)c(F)cc1Cl (stereo not shown) [2-(3-(2-chloro-4,5-difluorophenyl)-2-fluoropropanamido)-4-(4-chlorophenyl)thiophene-3-carboxylic acid]
O=C(Nc1scc(-c2ccc(Br)cc2)c1C(=O)O)/C(F)=C/c1ccccc1 [(Z)-4-(4-bromophenyl)-2-(2-fluoro-3-phenylacryl amido)thiophene-3-carboxylic acid]
O=C(O)c1c(-c2ccc(Cl)cc2)csc1NC(=O)[C@@H]1CCc2ccccc2C1 [(R)-4-(4-chlorophenyl)-2-(1,2,3,4-tetrahydronaphthalene-2-carboxamido)thiophene-3-carboxylic acid]
O=C(Nc1scc(-c2ccc(Br)c(F)c2F)c1C(=O)O)c1cc2ccccc2o1 [2-(benzofuran-2-carboxamido)-4-(4-bromo-2,3-difluorophenyl)thiophene-3-carboxylic acid]
O=C(Nc1scc(-c2ccc(Cl)cc2)c1C(=O)O)c1ncc(-c2ccccc2)cn1 [4-(4-chlorophenyl)-2-(5-phenylpyrimidine-2-carboxamido)thiophene-3-carboxylic acid]
O=C(Nc1scc(-c2ccc(Cl)cc2)c1C(=O)O)c1cc2ccccn2n1 [4-(4-chlorophenyl)-2-(pyrazolo[1,5-a]pyridine-2-carboxamido)thiophene-3-carboxylic acid]
O=C(Nc1scc(-c2cc3cccc(O)c3o2)c1C(=O)O)c1cc2ccccc2o1 [2-(benzofuran-2-carboxamido)-4-(7-hydroxybenzofuran-2-yl)thiophene-3-carboxylic acid]
O=C(Nc1scc(-c2ccc(C3CC3)c(F)c2F)c1C(=O)O)c1cc2ccccc2o1 [2-(benzofuran-2-carboxamido)-4-(4-cyclopropyl-2,3-difluorophenyl)thiophene-3-carboxylic acid]
O=C(Cc1cc2ccccc2o1)Nc1scc(-c2ccc(Br)cc2)c1C(=O)O [2-(2-(benzofuran-2-yl)acetamido)-4-(4-bromophenyl)thiophene-3-carboxylic acid]
O=C(Nc1scc(-c2ccc(Cl)cc2)c1C(=O)O)c1ncc2ccccc2n1 [4-(4-chlorophenyl)-2-(quinazoline-2-carboxamido)thiophene-3-carboxylic acid]
O=C(Nc1scc(-c2cc3cccc(O)c3o2)c1C(=O)O)c1nc2cccc(F)c2o1 [2-(7-fluorobenzo[d]oxazole-2-carboxamido)-4-(7-hydroxybenzofuran-2-yl)thiophene-3-carboxylic acid]
O=C(CCc1c(Cl)cccc1Cl)Nc1scc(-c2ccc(Cl)cc2)c1C(=O)O [4-(4-chlorophenyl)-2-(3-(2,6-dichlorophenyl)propanamido)thiophene-3-carboxylic acid]
